Reference: patent publication US20040241310A1, “Method of producing antibodies ex-vivo” (priority 2001, published 2004)

System: White Leghorn chickens
Format: in vivo
Details: oral gavage, 100 μg human IgG together with the adjuvant, two hens per group

Row | Compound | titers (antibodies in egg yolk)
1 | CCCCCCCCCCCCCCCCCC[N+](C)(C)CCCCCCCCCCCCCCCCCC.[Br-] [DDA, Dimethyl dioctadecyl ammonium bromide] | no or very low titers
2 | CTB | One of four chickens in the CTB-group showed high titers
